Experimental findings from US10676446B2, “Bicyclic quinazolinone derivatives” (Hoffmann-La Roche Inc., priority 2015, dated 2020) are described below.

For orientation: IC50 means the concentration that gives 50% inhibition. Higher therefore signals lower potency.

This experiment has as its target human ATX (autotaxin, ENPP2), His-tagged (Homo sapiens (Human), UniProt Q13822). The experiment can be described thus: Human ATX enzyme inhibition assay (fluorescence quenching, MR121 substrate). The class given is biochemical. To be noted: 30 nM ATX, 1 μM MR121 substrate, 30° C., pH 8.0. As to the method: Human ATX Enzyme Inhibition Assay
ATX inhibition was measured by a fluorescence quenching assay using a specifically labeled substrate analogue (MR121 substrate). To obtain this MR121 substrate, BOC and TBS protected 6-amino-hexanoic acid (R)-3-({2-[3-(2-{2-[2-(2-amino-ethoxy)-ethoxy]-ethoxy}-ethoxy)-propionylamino]-ethoxy}-hydroxy-phosphoryloxy)-2-hydroxy-propyl ester (Ferguson et al., Org. Lett. 2006, 8, 2023) was labeled with MR121 fluorophore [CAS RN 185308-24-1], 1-(3-carboxypropyl)-11-ethyl-1,2,3,4,8,9,10,11-octahydro-dipyrido[3,2-b:2′,3′-i]phenoxazin-13-ium) on the free amine of the ethanolamine side and then, after deprotection, subsequently with tryptophan on the side of the aminohexanoic acid.
Assay working solutions were made as follows:
Assay buffer (50 mM Tris-HCl, 140 mM NaCl, 5 mM KCl, 1 mM CaCl2, 1 mM MgCl2, 0.01% Triton-X-100, pH 8.0;
ATX solution: ATX (human His-tagged) stock solution (1.08 mg/mL in 20 mM bicine, pH 8.5, 0.15 M NaCl, 10% glycerol, 0.3% CHAPS, 0.02% NaN3), diluted to 1.4-2.5× final concentration in assay buffer;
MR121 substrate solution: MR121 substrate stock solution (800 μM MR121 substrate in DMSO), diluted to 2-5× final concentration in assay buffer.
Test compounds (10 mM stock in DMSO, 8 μL) were obtained in 384 well sample plates (Corning Costar #3655) and diluted with 8 μL DMSO. Row-wise serial dilutions were made by transferring 8 μL cpd solution to the next row up to row O. The compound and control solutions were mixed five times and 2 μL were transferred to 384 well assay plates (Corning Costar #3702). Then, 15 μL of 41.7 nM ATX solution was added (30 nM final concentration), mixed five times and then incubated for 15 minutes at 30° C. 10 μL of MR121 substrate solution was added (1 μM final concentration), mixed 30 times and then incubated for 15 minutes at 30° C.
For the compound `COCC(=O)N1CCC(c2ccc3ncn(CC(=O)N(C)Cc4ccc(Cl)c(Cl)c4)c(=O)c3c2)CC1` [Example 171], the IC50 amounted to 3 nM.
`CC(=O)N1CCN(c2ccc3ncn(CC(=O)NC(CC(=O)Nc4ccccc4)c4ccc(C(F)(F)F)cc4)c(=O)c3c2)CC1` (stereo not drawn) [Example 7] came in with a 50% inhibitory concentration (IC50) of 84 nM.
With `CC(=O)N1CCC(c2ccc3ncn(CC(=O)NCc4ccc(Cl)c(C(F)(F)F)c4)c(=O)c3c2)CC1` [Example 163], the IC50 was 1 nM. Against the preceding compound, the IC50 is about 84-fold lower.
`CN(Cc1ccc(C#N)c(Cl)c1)C(=O)Cn1cnc2ccc(C3CCN(C(=O)C4COC4)CC3)cc2c1=O` [Example 142] displayed a concentration for half-maximal inhibition (IC50) of 60 nM.
In turn, `CC(=O)N1CCN(c2ccc3ncn(CC(=O)NCc4ccc(C#N)nc4)c(=O)c3c2)CC1` [Example 18] displayed an IC50 of 14 nM.
Compound `CC(=O)N1CCN(c2ccc3ncn(CC(=O)NCc4ccc(Cl)c(C(F)(F)F)c4)c(=O)c3c2)CC1` [Example 34] registered an IC50 of 24 nM.
`CN(Cc1ccc(C#N)c(Cl)c1)C(=O)Cn1cnc2ccc(C3CCN(C(=O)CO[N+](=O)[O-])CC3)cc2c1=O` [Example 186, [2-[4-[3-[2-[(3-Chloro-4-cyanophenyl)methyl-methylamino]-2-oxoethyl]-4-oxoquinazolin-6-yl]piperidin-1-yl]-2-oxoethyl]nitrate] displayed an IC50 of 4 nM.
As to `CC(=O)N1CCC(c2ccc3ncn(CC(=O)NCc4ccc(F)c(C(F)(F)F)c4)c(=O)c3c2)CC1` [Example 162], the 50% inhibitory concentration (IC50) is 44 nM.
`CC(=O)N1CCN(c2ccc3ncn(CC(=O)N(C)Cc4ccc(C#N)c(Cl)c4)c(=O)c3c2)CC1` [Example 56, 2-[6-(4-Acetylpiperazin-1-yl)-4-oxoquinazolin-3-yl]-N-[(3-chloro-4-cyanophenyl)methyl]-N-methylacetamide] displayed an IC50 of 8 nM. Against the preceding compound, the IC50 is about 5.5-fold lower.
Compound `CC(C)[C@H](O)C(=O)N1CCC(c2ccc3ncn(CC(=O)N(C)Cc4ccc(Cl)c(Cl)c4)c(=O)c3c2)CC1` [Example 170] came in with an IC50 of 14 nM. This IC50 is about 1.8-fold higher than that of the compound before.
`CC(=O)N1CCN(c2ccc3ncn(CC(=O)NC(CC(=O)NCC(C)C)c4ccc(C(F)(F)F)cc4)c(=O)c3c2)CC1` (stereo not drawn) [Example 6] came in with a 50% inhibitory concentration (IC50) of 979 nM.
As for `O=C(Cn1cnc2ccc(N3CCN(C(=O)C(F)(F)F)CC3)cc2c1=O)NCc1ccc(Cl)c(Cl)c1` [Example 62], the IC50 was determined as 11 nM.
Turning to `CNC(=O)CC(NC(=O)Cn1cnc2ccc(N3CCN(C(C)=O)CC3)cc2c1=O)c1ccc(C(F)(F)F)cc1` (stereo not drawn) [Example 4], 170 nM corresponded to half-maximal inhibition (IC50).
In turn, `COC(C)C(=O)N1CCC(c2ccc3ncn(CC(=O)N(C)Cc4ccc(Cl)c(Cl)c4)c(=O)c3c2)CC1` (stereo not drawn) [Example 173] registered an IC50 of 8 nM.
Under `CC(=O)N1CCN(c2ccc3ncn(CC(=O)N(C)Cc4cc(F)c(C#N)c(F)c4)c(=O)c3c2)CC1` [Example 58, 2-[6-(4-Acetylpiperazin-1-yl)-4-oxoquinazolin-3-yl]-N-[(4-cyano-3,5-difluorophenyl)methyl]-N-methylacetamide] stands 15 nM; under `CC(=O)N1CCN(c2ccc3ncn(CC(=O)NCc4ccc(C#N)cc4)c(=O)c3c2)CC1` [Example 19], 130 nM.
Compound `CC(=O)N1CCCN(c2ccc3ncn(CC(=O)N(C)Cc4ccc(C#N)c(Cl)c4)c(=O)c3c2)CC1` [Example 120] came in with a half-maximal inhibitory concentration (IC50) of 9 nM. This IC50 is about 14-fold lower than that of the compound before.
`CN(Cc1ccc(Cl)c(Cl)c1)C(=O)Cn1cnc2ccc(N3CCN(CC(=O)N4CCOCC4)CC3)cc2c1=O` [Example 111]: the half-inhibitory concentration (IC50) is 35 nM. This IC50 is about 3.9-fold higher than that of the compound before.
Consider `CC(=O)N1CCN(c2ccc3ncn(C(C)C(=O)NCc4ccc(Cl)c(Cl)c4)c(=O)c3c2)CC1` (stereo not drawn) [Example 148, 2-[6-(4-Acetylpiperazin-1-yl)-4-oxoquinazolin-3-yl]-N-[(3,4-dichlorophenyl)methyl]propanamide], for which the IC50 was determined as 15 nM.
Under `CN(Cc1ccc(C#N)c(Cl)c1)C(=O)Cn1cnc2ccc(C3CCN(C(=O)C4CC(F)(F)C4)CC3)cc2c1=O` [Example 140] stands 47 nM; under `COCC(=O)N1CCC(c2ccc3ncn(CC(=O)N(C)Cc4ccc(C#N)c(Cl)c4)c(=O)c3c2)CC1` [Example 132], 12 nM; under `CC(=O)N1CCN(c2ccc3ncn(CC(=O)NCc4ccc(OC(F)(F)F)cc4)c(=O)c3c2)CC1` [Example 20], 5 nM.
In the case of `O=C(Cn1cnc2ccc(N3CCN(C(=O)C4CCOCC4)CC3)cc2c1=O)NCc1ccc(Cl)c(Cl)c1` [Example 66], half-maximal inhibition (IC50) required 190 nM.
In turn, `CN(Cc1ccc(Cl)c(Cl)c1)C(=O)Cn1cnc2ccc(N3CCN(S(=O)(=O)CC4CCC4)CC3)cc2c1=O` [Example 92] yielded a 50% inhibitory concentration (IC50) of 7 nM.
In the case of `CN(Cc1ccc(Cl)c(Cl)c1)C(=O)Cn1cnc2ccc(C3CCN(C(=O)C4CCCO4)CC3)cc2c1=O` (stereo not drawn) [Example 180], half-maximal inhibition (IC50) was put at 5 nM.
In the case of `CC(=O)N1CCN(c2ccc3ncn(CC(=O)N(C)Cc4ccc(C#N)c(F)c4)c(=O)c3c2)CC1` [Example 45] it was 38 nM.
For `CC(=O)N1CCN(c2ccc3ncn(CC(=O)NCc4ccc(C#N)c(Cl)c4)c(=O)c3c2)CC1` [Example 25], the half-inhibitory concentration (IC50) turned out to be 16 nM. Against the preceding compound, the IC50 is about 2.4-fold lower.
As for `COC(=O)CN1CCN(c2ccc3ncn(CC(=O)NCc4ccc(Cl)c(Cl)c4)c(=O)c3c2)CC1` [Example 93, Methyl 2-[4-[3-[2-[(3,4-dichlorophenyl)methylamino]-2-oxoethyl]-4-oxoquinazolin-6-yl]piperazin-1-yl]acetate], the IC50 was 29 nM.
As for `CN(Cc1ccc(Cl)c(Cl)c1)C(=O)Cn1cnc2ccc(C3CCN(C(=O)C4(O)CC4)CC3)cc2c1=O` [Example 179], half-maximal inhibition (IC50) was put at 156 nM.
As for `O=C(Cn1cnc2ccc(N3CCN(C(=O)NC4CCCC4)CC3)cc2c1=O)NCc1ccc(Cl)c(Cl)c1` [Example 84], the half-maximal inhibitory concentration (IC50) came out at 2 nM. This IC50 lies about 78-fold lower than the previous one.
In the case of `CN(C)C(=O)CN1CCN(c2ccc3ncn(CC(=O)N(C)Cc4ccc(Cl)c(Cl)c4)c(=O)c3c2)CC1` [Example 108] it was 55 nM; in that of `CC(=O)N1CCN(c2ccc3ncn(CC(=O)NCc4cccc(C#N)c4C)c(=O)c3c2)CC1` [Example 35], 71 nM.
In the case of `CN(Cc1ccc(C#N)c(Cl)c1)C(=O)Cn1cnc2ccc(C3CCN(C(=O)C4CCC4)CC3)cc2c1=O` [Example 137] it was 2 nM.
Under `CC(=O)N1CCN(c2ccc3ncn(CC(=O)NCc4ccc(C#N)c(F)c4)c(=O)c3c2)CC1` [Example 28, 2-[6-(4-Acetylpiperazin-1-yl)-4-oxoquinazolin-3-yl]-N-[(4-cyano-3-fluorophenyl)methyl]acetamide] stands 27 nM.
`CC(=O)N1CCN(c2ccc3ncn(CC(=O)NCc4cc(-c5ccc(Cl)cc5)no4)c(=O)c3c2)CC1` [Example 50] came in with an IC50 of 456 nM.
Under `CN(Cc1ccc(C#N)c(Cl)c1)C(=O)Cn1cnc2ccc(N3CCCN(CC4CCOC4)CC3)cc2c1=O` (stereo not drawn) [Example 129, N-[(3-Chloro-4-cyanophenyl)methyl]-N-methyl-2-[4-oxo-6-[4-(oxolan-3-ylmethyl)-1,4-diazepan-1-yl]quinazolin-3-yl]acetamide] stands 26 nM.
Under `CN(Cc1ccc(C#N)c(Cl)c1)C(=O)Cn1cnc2ccc(C3CCN(CC4CCOC4)CC3)cc2c1=O` (stereo not drawn) [Example 143, N-[(3-Chloro-4-cyanophenyl)methyl]-N-methyl-2-[4-oxo-6-[1-(oxolan-3-ylmethyl)piperidin-4-yl]quinazolin-3-yl]acetamide] stands 46 nM; under `CC(=O)N1CCCN(c2ccc3ncn(CC(=O)N(C)Cc4ccc(Cl)c(C#N)c4)c(=O)c3c2)CC1` [Example 121], 20 nM; under `C[C@@H](O)C(=O)N1CCC(c2ccc3ncn(CC(=O)N(C)Cc4ccc(C#N)c(Cl)c4)c(=O)c3c2)CC1` [Example 156], 561 nM.
On to `CC(=O)N1CCC(c2ccc3ncn(CC(=O)N(C)Cc4ccc(C#N)c(F)c4)c(=O)c3c2)CC1` [Example 127], for which the IC50 amounted to 9 nM.
As to `CC(=O)N1CCN(c2ccc3ncn(CC(=O)NCc4c(F)cc(C#N)cc4F)c(=O)c3c2)CC1` [Example 31], the IC50 came to 331 nM. Against the preceding compound, the IC50 is about 37-fold higher.
In turn, `CN(Cc1ccc(Cl)c(C#N)c1)C(=O)Cn1cnc2ccc(N3CCN(CC4CCOC4)CC3)cc2c1=O` (stereo not drawn) [Example 115, N-[(4-Chloro-3-cyanophenyl)methyl]-N-methyl-2-[4-oxo-6-[4-(oxolan-3-ylmethyl)piperazin-1-yl]quinazolin-3-yl]acetamide] gave an IC50 of 29 nM. Against the preceding compound, the IC50 is about 11-fold lower.
Under `CNC(=O)C[C@@H](NC(=O)Cn1cnc2ccc(N3CCN(C(C)=O)CC3)cc2c1=O)c1ccc([N+](=O)[O-])cc1` [Example 9, (3R)-3-[[2-[6-(4-Acetylpiperazin-1-yl)-4-oxoquinazolin-3-yl]acetyl]amino]-N-methyl-3-(4-nitrophenyl)propanamide] stands 54 nM; under `CN(Cc1ccc(Cl)c(Cl)c1)C(=O)Cn1cnc2ccc(N3CCN(C(=O)C4(C(F)(F)F)CCC4)CC3)cc2c1=O` [Example 76], 10 nM; under `CN(Cc1ccc(Cl)c(Cl)c1)C(=O)Cn1cnc2ccc(N3CCN(C(=O)C4COC4)CC3)cc2c1=O` [Example 79], 10 nM.
